Test results published in patent US8309685B2 (Celgene Avilomics Research, Inc., priority 2007, dated 2012).
Read-outs that look alike come from different tables or passages of the source.

What was measured:
[1] = biological target: T1, wild type HCV NS3/4A 1b protease enzyme (Hepatitis C virus genotype 1b, UniProt P26663); test: biochemical; type: biochemical
T1 construct: 10× stocks of NS3/4A protease enzyme from Bioenza (Mountain View, Calif.); purchased Bioenza (Mountain View, Calif.)
Experimental: (§1) HCV Protease FRET Assay for Wild Type and Mutated NS3/4A 1b Enzymes (IC50)
(§2) Protease reactions were started with the addition of 45 μL of the FRET substrate and monitored for 120 minutes at λex487/λem514 through Quad^4 monochromoters in a Synergy^4 plate reader from BioTek (Winooski, Vt.). At the conclusion of each assay, progress curves from each well were examined for linear reaction kinetics and fit statistics (R^2, absolute sum of squares).
(§3) The compound numbers correspond to the compound numbers in Table 3.

[2] = biological target: T2, D168A mutant of the HCV NS3/4A 1b protease enzyme (Hepatitis C virus genotype 1b, UniProt P26663, D1194A); test: HCV Protease FRET Assay (IC50), D168A mutant; type: biochemical
T2 construct: 10× stocks of NS3/4A protease enzyme from Bioenza (Mountain View, Calif.); purchased Bioenza (Mountain View, Calif.)
Experimental: as §1, §2, §3

[3] = read-out: Inhibition, WT, WT enzyme, FRET assay
[4] = read-out: Inhibition, HCV D168A, D168A enzyme, FRET assay

Row | Compound | IC50 [1] [µM] | IC50 [2] [µM] | IC50 [1, 3] [µM] | IC50 [2, 4] [µM]
1 | C=C[C@@H]1C[C@]1(NC(=O)[C@@H]1C[C@@H](Oc2cc(-c3ccccc3)nc3cc(OC)ccc23)CN1C(=O)CNC(=O)CC)C(=O)NS(=O)(=O)c1ccccc1 [I^R-27, (2S,4R)-4-(7-methoxy-2-phenylquinolin-4-yloxy)-N-((1R,2S)-1-(phenylsulfonylcarbamoyl)-2-vinylcyclopropyl)-1-(2-propionamidoacetyl)pyrrolidine-2-carboxamide] | 0.1 to 1 | 1 to 10 | – | –
2 | C=C[C@@H]1C[C@]1(NC(=O)[C@@H]1C[C@@H](Oc2cc(-c3ccccc3)nc3cc(OC)ccc23)CN1C(=O)[C@H](CNC(=O)[C@@H](C)Cl)NC(=O)OC(C)(C)C)C(=O)NS(=O)(=O)c1ccccc1 [Compound I-13, N-[(1,1-dimethylethoxy)carbonyl]-3-[R-(chloropropionyl)amino]-L-alanyl-(4R)-4-[(7-methoxy-2-phenyl-4-quinolinyl)oxy]-L-prolyl-1-amino-2-ethenyl-N-(phenylsulfonyl)-(1R,2S)-cyclopropanecarboxamide] | – | – | < 0.01 | 0.1 to 1
3 | C=CC(=O)N(C)CC(=O)N1C[C@H](Oc2cc(-c3ccccc3)nc3cc(OC)ccc23)C[C@H]1C(=O)N[C@]1(C(=O)NS(=O)(=O)C2CC2)C[C@H]1C=C [Compound I-37, (2S,4R)—N-((1R,2S)-1-(cyclopropylsulfonylcarbamoyl)-2-vinylcyclopropyl)-4-(7-methoxy-2-phenylquinolin-4-yloxy)-1-(2-(N-methylacrylamido)acetyl)pyrrolidine-2-carboxamide] | – | – | 0.01 to 0.1 | 1 to 10
4 | C=C[C@@H]1C[C@]1(NC(=O)[C@@H]1C[C@@H](Oc2cc(-c3ccccc3)nc3cc(OC)ccc23)CN1C(=O)[C@H](CNC(=O)C1(C#N)CC1)NC(=O)OC(C)(C)C)C(=O)NS(=O)(=O)c1ccccc1 [Compound I-11, N-[(1,1-dimethylethoxy)carbonyl]-3-[(1-cyano-cyclopropylcarboxyl)amino]-L-alanyl-(4R)-4-[(7-methoxy-2-phenyl-4-quinolinyl)oxy]-L-prolyl-1-amino-2-ethenyl-N-(phenylsulfonyl)-(1R,2S)-cyclopropanecarboxamide] | – | – | < 0.01 | 0.1 to 1
5 | C=CC(=O)OC(C)(C)[C@H](NC(=O)OC(C)(C)C)C(=O)N1CC(Oc2cc(-c3ccccc3)nc3cc(OC)ccc23)C[C@H]1C(=O)N[C@]1(C(=O)NS(=O)(=O)C2CC2)C[C@H]1C=C (some centres unmarked) [Compound I-40] | – | – | 0.01 to 0.1 | < 0.01
6 | C=C[C@@H]1C[C@]1(NC(=O)[C@@H]1C[C@@H](Oc2cc(-c3ccccc3)nc3cc(OC)ccc23)CN1C(=O)CNC(=O)[C@@H](Cl)c1ccccc1)C(=O)NS(=O)(=O)c1ccccc1 (stereo in doubt) [Compound I-45, (2S,4R)-1-(2-((S,R)-2-chloro-2-phenylacetamido)acetyl)-4-(7-methoxy-2-phenylquinolin-4-yloxy)-N-((1R,2S)-1-(phenylsulfonylcarbamoyl)-2-vinylcyclopropyl)pyrrolidine-2-carboxamide] | – | – | 0.1 to 1 | 1 to 10
7 | C=C[C@@H]1C[C@]1(NC(=O)[C@@H]1C[C@@H](Oc2cc(-c3ccccc3)nc3cc(OC)ccc23)CN1C(=O)CNC(=O)C(=C)C)C(=O)NS(=O)(=O)c1ccccc1 [Compound I-44, (2S,4R)-1-(2-methacrylamidoacetyl)-4-(7-methoxy-2-phenylquinolin-4-yloxy)-N-((1R,2S)-1-(phenylsulfonylcarbamoyl)-2-vinylcyclopropyl)pyrrolidine-2-carboxamide] | – | – | 0.01 to 0.1 | 1 to 10
8 | C=CC(=O)N1C[C@H](Oc2cc(-c3ccccc3)nc3cc(OC)ccc23)C[C@H]1C(=O)N[C@]1(C(=O)NS(=O)(=O)C2CC2)C[C@H]1C=C [Compound I-49, (2S,4R)-1-acryloyl-N-((1R,2S)-1-(cyclopropylsulfonylcarbamoyl)-2-vinylcyclopropyl)-4-(7-methoxy-2-phenylquinolin-4-yloxy)pyrrolidine-2-carboxamide] | – | – | 0.01 to 0.1 | 0.1 to 1
9 | C=C[C@@H]1C[C@]1(NC(=O)[C@@H]1C[C@@H](Oc2cc(-c3ccccc3)nc3cc(OC)ccc23)CN1C(=O)C1(NC(=O)OC(C)(C)C)CCNCC1)C(=O)NS(=O)(=O)c1ccccc1 [Compound I-24, tert-butyl-4-((2S,4R)-4-(7-methoxy-2-phenylquinolin-4-yloxy)-2-((1R,2S)-1-(phenylsulfonylcarbamoyl)-2-vinylcyclopropylcarbamoyl)pyrrolidine-1-carbonyl)piperidin-4-ylcarbamate] | – | – | 0.1 to 1 | 1 to 10
10 | C=C[C@@H]1C[C@]1(NC(=O)[C@@H]1C[C@@H](Oc2cc(-c3ccccc3)nc3cc(OC)ccc23)CN1C(=O)CNC(=O)C#CC)C(=O)NS(=O)(=O)c1ccccc1 [Compound I-43, (2S,4R)-1-(2-but-2-ynamidoacetyl)-4-(7-methoxy-2-phenylquinolin-4-yloxy)-N-((1R,2S)-1-(phenylsulfonylcarbamoyl)-2-vinylcyclopropyl)pyrrolidine-2-carboxamide] | – | – | 0.1 to 1 | 1 to 10
11 | C=C[C@@H]1C[C@]1(NC(=O)[C@@H]1C[C@@H](Oc2cc(-c3ccccc3)nc3cc(OC)ccc23)CN1C(=O)CNC(=O)OC(C)(C)C)C(=O)NS(=O)(=O)C1CC1 [Compound I-38, tert-butyl-2-((2S,4R)-2-((1R,2S)-1-(cyclopropylsulfonylcarbamoyl)-2-vinylcyclopropylcarbamoyl)-4-(7-methoxy-2-phenylquinolin-4-yloxy)pyrrolidin-1-yl)-2-oxoethylcarbamate] | – | – | < 0.01 | 0.1 to 1
12 | C=C[C@@H]1C[C@]1(NC(=O)[C@@H]1C[C@@H](Oc2cc(-c3ccccc3)nc3cc(OC)ccc23)CN1C(=O)[C@H](CC1CO1)NC(=O)OC(C)(C)C)C(=O)NS(=O)(=O)c1ccccc1 (stereo partly drawn) [Compound I-6, (2S)-2-[[(1,1-dimethylethoxy)carbonyl]amino]-3-oxiranepropanoyl-(4R)-4-[(7-methoxy-2-phenyl-4-quinolinyl)oxy]-L-prolyl-1-amino-2-ethenyl-N-(phenylsulfonyl)-(1R,2S)-cyclopropanecarboxamide] | – | – | < 0.01 | 0.1 to 1
13 | C=CC(=O)N[C@@H](C)C(=O)N1C[C@H](Oc2cc(-c3ccccc3)nc3cc(OC)ccc23)C[C@H]1C(=O)N[C@]1(C(=O)NS(=O)(=O)c2ccccc2)C[C@H]1C=C [Compound I-34, (2S,4R)-1-((S)-2-acrylamidopropanoyl)-4-(7-methoxy-2-phenylquinolin-4-yloxy)-N-((1R,2S)-1-(phenylsulfonylcarbamoyl)-2-vinylcyclopropyl)pyrrolidine-2-carboxamide] | – | – | 0.01 to 0.1 | 1 to 10
14 | C=CC(=O)NC[C@H](NC(=O)CCCCCNC(=O)CCCC[C@@H]1SC[C@@H]2NC(=O)N[C@@H]21)C(=O)N1C[C@H](Oc2cc(-c3ccccc3)nc3cc(OC)ccc23)C[C@H]1C(=O)N[C@]1(C(=O)NS(=O)(=O)c2ccccc2)C[C@H]1C=C [Compound I-31, (2S,4R)-1-((S)-3-acrylamido-2-(6-(5-((3aS,4S,6aR)-2-oxohexahydro-1H-thieno[3,4-d]imidazol-4-yl)pentanamido)hexanamido)propanoyl)-4-(7-methoxy-2-phenylquinolin-4-yloxy)-N-((1R,2S)-1-(phenylsulfonylcarbamoyl)-2-vinylcyclopropyl)pyrrolidine-2-carboxamide] | – | – | < 0.01 | 0.01 to 0.1
15 | C=C[C@@H]1C[C@]1(NC(=O)[C@@H]1C[C@@H](Oc2cc(-c3ccccc3)nc3cc(OC)ccc23)CN1C(=O)[C@H](CNC(=O)[C@H](C)Cl)NC(=O)OC(C)(C)C)C(=O)NS(=O)(=O)c1ccccc1 [Compound I-21, tert-butyl(S)-3-((S)-2-chloropropanamido)-1-((2S,4R)-4-(7-methoxy-2-phenylquinolin-4-yloxy)-2-((1R,2S)-1-(phenylsulfonylcarbamoyl)-2-vinylcyclopropylcarbamoyl)pyrrolidin-1-yl)-1-oxopropan-2-ylcarbamate] | – | – | < 0.01 | 0.1 to 1
16 | C=C[C@@H]1C[C@]1(NC(=O)[C@@H]1C[C@@H](Oc2cc(-c3ccccc3)nc3cc(OC)ccc23)CN1C(=O)[C@H](CCNC(=O)C(C)Cl)NC(=O)OC(C)(C)C)C(=O)NS(=O)(=O)c1ccccc1 (stereo partly drawn) [Compound I-1, (2S)-2-[[(1,1-dimethylethoxy)carbonyl]amino]-4-(R,S-chloropropionyl)amino-butanoyl-(4R)-4-[(7-methoxy-2-phenyl-4-quinolinyl)oxy]-L-prolyl-1-amino-2-ethenyl-N-(phenylsulfonyl)-(1R,2S)-cyclopropanecarboxamide] | – | – | < 0.01 | 1 to 10
